#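 These data come from cells grown in 96-well plates and exposed to compound for 48 hours at five concentrations. GI50 = concentration required for 50% inhibition of growth. TGI: total growth inhibition.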
# What was measured:
# Test in all cases: NCI anticancer screen, dose series, 48 h
# [1] = system: LOX IMVI melanoma
# [2] = system: SNB-75 CNS
# [3] = system: NCI-H460 lung
# [4] = system: HL-60(TB) leukemia
# [5] = system: MDA-MB-435
# [6] = system: TK-10 renal
# [7] = system: PC-3 prostate
# [8] = system: SK-OV-3 ovarian
# [9] = system: MCF7 breast
# [10] = system: OVCAR-4 ovarian
# [11] = system: HCT-15 colon
# [12] = system: SW-620 colon
# [13] = system: A549 NSCLC
# [14] = system: COLO 205 colon
# [15] = system: NCI-H522 lung
# [16] = system: NCI/ADR-RES ovarian
# [17] = system: T-47D breast
# [18] = system: DU-145 prostate
# [19] = system: OVCAR-5 ovarian
# [20] = system: HCC-2998 colon
# [21] = system: EKVX NSCLC
# [22] = system: BT-549 breast
# [23] = system: A498 renal
# [24] = system: UO-31 renal
# [25] = system: SK-MEL-5 melanoma
# [26] = system: MDA-MB-231 breast
# [27] = system: K-562 leukemia
# [28] = system: SF-295 CNS
# [29] = system: UACC-62 melanoma
# [30] = system: HOP-92 NSCLC
# [31] = system: SF-539 CNS
# [32] = system: CAKI-1 renal
# [33] = system: CCRF-CEM leukemia
# [34] = system: NCI-H23 lung
# [35] = system: HS 578T breast
# [36] = system: UACC-257 melanoma
# [37] = system: NCI-H226 lung
# [38] = system: KM12 colon
# [39] = system: SNB-19 CNS
# [40] = system: RPMI-8226 leukemia
# [41] = system: U251 CNS
# [42] = system: MOLT-4 leukemia
# [43] = system: SN12C renal
# [44] = system: SK-MEL-2 melanoma
# [45] = system: HT29 colon
# [46] = system: SK-MEL-28 melanoma
# [47] = system: SF-268 CNS
# [48] = system: M14 melanoma
# [49] = system: RXF 393 renal
# [50] = system: HCT-116 colon
# [51] = system: MALME-3M melanoma
# [52] = system: OVCAR-3 ovarian
# [53] = system: HOP-62 NSCLC
# [54] = system: 786-0 renal
# [55] = system: IGROV1 ovarian
# [56] = system: ACHN renal
# [57] = system: OVCAR-8 ovarian
# [58] = system: SR leukemia
smiles,measurement,setting,value
COc1cc(C(=O)O[C@H](C(=O)NCCCNC(=O)[C@@H](OC(=O)c2cc(OC)cc3c(C)cccc23)[C@]2(C)CO2)[C@]2(C)CO2)c2cccc(C)c2c1,GI50,[1],< 0.01 µM
same,TGI,[1],< 0.01 µM
same,TGI,[2],0.381 µM
same,GI50,[3],< 0.019 µM
same,TGI,[3],0.902 µM
same,GI50,[4],< 0.01 µM
same,TGI,[4],< 0.01 µM
same,TGI,[5],0.503 µM
same,GI50,[6],0.0275 µM
same,TGI,[6],0.28 µM
same,GI50,[7],< 0.0367 µM
same,TGI,[7],0.477 µM
same,GI50,[8],0.501 µM
same,TGI,[8],1.98 µM
same,GI50,[9],< 0.01 µM
same,TGI,[9],0.219 µM
same,GI50,[10],< 0.01 µM
same,TGI,[10],0.231 µM
same,GI50,[11],0.0444 µM
same,TGI,[11],0.723 µM
same,GI50,[12],< 0.01 µM
same,GI50,[13],0.128 µM
same,TGI,[13],0.718 µM
same,GI50,[14],0.0593 µM
same,TGI,[14],0.511 µM
same,GI50,[15],< 0.01 µM
same,TGI,[15],< 0.01 µM
same,GI50,[16],0.154 µM
same,TGI,[16],0.97 µM
same,GI50,[17],0.0595 µM
same,TGI,[17],0.839 µM
same,GI50,[18],< 0.01 µM
same,TGI,[18],< 0.01 µM
same,GI50,[19],0.168 µM
same,TGI,[19],1.45 µM
same,GI50,[20],< 0.0198 µM
same,TGI,[20],0.224 µM
same,GI50,[21],0.0885 µM
same,TGI,[21],1.61 µM
same,GI50,[22],0.197 µM
same,TGI,[22],2.29 µM
same,TGI,[23],1.83 µM
same,GI50,[24],0.705 µM
same,TGI,[24],> 100 µM
same,GI50,[25],< 0.0154 µM
same,TGI,[25],0.178 µM
same,GI50,[26],0.153 µM
same,TGI,[26],0.579 µM
same,GI50,[27],< 0.0359 µM
same,TGI,[27],0.923 µM
same,TGI,[28],0.562 µM
same,GI50,[29],0.962 µM
same,TGI,[29],2.14 µM
same,GI50,[30],< 0.0113 µM
same,TGI,[30],0.15 µM
same,GI50,[31],< 0.0268 µM
same,TGI,[31],0.138 µM
same,GI50,[32],0.033 µM
same,TGI,[32],0.205 µM
same,GI50,[33],< 0.01 µM
same,GI50,[34],< 0.01 µM
same,TGI,[34],0.0224 µM
same,GI50,[35],0.206 µM
same,GI50,[36],0.27 µM
same,TGI,[36],0.872 µM
same,GI50,[37],0.151 µM
same,TGI,[37],0.762 µM
same,GI50,[38],0.101 µM
same,TGI,[38],0.607 µM
same,TGI,[39],0.701 µM
same,GI50,[40],0.322 µM
same,TGI,[40],2.26 µM
same,GI50,[41],< 0.01 µM
same,TGI,[41],0.0206 µM
same,GI50,[42],< 0.01 µM
same,TGI,[42],< 0.01 µM
same,TGI,[43],0.486 µM
same,GI50,[44],0.137 µM
same,TGI,[44],34.6 µM
same,GI50,[45],< 0.0121 µM
same,GI50,[46],< 0.0375 µM
same,TGI,[46],0.142 µM
same,GI50,[47],< 0.01 µM
same,GI50,[48],< 0.0486 µM
same,GI50,[49],< 0.01 µM
same,TGI,[49],< 0.01 µM
CSc1c(C2=C(c3cn(C)c4ccccc34)C(=O)NC2=O)c2ccccc2n1C,GI50,[1],1.54 µM
same,TGI,[1],> 25 µM
same,GI50,[50],1.04 µM
same,TGI,[50],> 25 µM
same,GI50,[2],0.728 µM
same,TGI,[2],> 12.6 µM
same,GI50,[3],0.832 µM
same,TGI,[3],> 25 µM
same,GI50,[4],0.703 µM
same,TGI,[4],3.55 µM
same,GI50,[51],1.21 µM
same,TGI,[51],> 25 µM
same,GI50,[6],0.606 µM
same,TGI,[6],> 25 µM
same,GI50,[7],0.795 µM
same,TGI,[7],> 25 µM
same,GI50,[8],0.833 µM
same,TGI,[8],> 25 µM
same,GI50,[9],0.805 µM
same,TGI,[9],> 25 µM
same,GI50,[10],1.2 µM
same,TGI,[10],> 22.5 µM
same,GI50,[11],0.755 µM
same,TGI,[11],> 25 µM
same,GI50,[12],0.736 µM
same,TGI,[12],> 25 µM
same,GI50,[13],1.14 µM
same,TGI,[13],> 25 µM
same,GI50,[14],0.675 µM
same,TGI,[14],> 25 µM
same,GI50,[15],0.367 µM
same,TGI,[15],1.59 µM
same,GI50,[16],1.02 µM
same,TGI,[16],> 25 µM
same,GI50,[17],1.15 µM
same,TGI,[17],> 25 µM
same,GI50,[18],1.13 µM
same,TGI,[18],> 25 µM
same,GI50,[19],23.4 µM
same,TGI,[19],> 25 µM
same,GI50,[52],0.629 µM
same,TGI,[52],2 µM
same,GI50,[20],5.31 µM
same,TGI,[20],> 25 µM
same,GI50,[22],0.747 µM
same,TGI,[22],11.5 µM
same,GI50,[53],1.38 µM
same,TGI,[53],> 25 µM
same,GI50,[54],1.19 µM
same,TGI,[54],> 25 µM
same,GI50,[23],0.376 µM
same,TGI,[23],2.11 µM
same,GI50,[24],0.703 µM
same,TGI,[24],> 19.4 µM
same,GI50,[25],0.758 µM
same,TGI,[25],6.88 µM
same,GI50,[26],2.57 µM
same,TGI,[26],> 25 µM
same,GI50,[27],0.665 µM
same,TGI,[27],> 25 µM
same,GI50,[28],0.671 µM
same,TGI,[28],> 25 µM
same,GI50,[29],0.896 µM
same,TGI,[29],> 25 µM
same,GI50,[30],0.599 µM
same,TGI,[30],> 25 µM
same,GI50,[32],0.741 µM
same,TGI,[32],> 20.4 µM
same,GI50,[33],0.793 µM
same,TGI,[33],> 17 µM
same,GI50,[34],1.39 µM
same,TGI,[34],> 25 µM
same,GI50,[35],0.59 µM
same,TGI,[35],> 25 µM
same,GI50,[36],1.41 µM
same,TGI,[36],> 25 µM
same,GI50,[37],3.21 µM
same,TGI,[37],> 25 µM
same,GI50,[55],1.39 µM
same,TGI,[55],> 25 µM
same,GI50,[38],0.843 µM
same,TGI,[38],> 25 µM
same,GI50,[56],0.845 µM
same,TGI,[56],> 25 µM
same,GI50,[39],> 25 µM
same,TGI,[39],> 25 µM
same,GI50,[57],1.56 µM
same,TGI,[57],> 25 µM
same,GI50,[58],0.128 µM
same,TGI,[58],1.88 µM
same,GI50,[40],0.813 µM
same,TGI,[40],> 7.04 µM
same,GI50,[41],1.23 µM
same,TGI,[41],> 25 µM
same,GI50,[42],1.43 µM
same,TGI,[42],8.78 µM
same,GI50,[43],1.49 µM
same,TGI,[43],> 25 µM
same,GI50,[44],0.689 µM
same,TGI,[44],5.37 µM
same,GI50,[45],0.814 µM
same,TGI,[45],> 25 µM
same,GI50,[46],1.85 µM
same,TGI,[46],> 25 µM
same,GI50,[47],1.51 µM
same,TGI,[47],> 25 µM
same,GI50,[48],0.649 µM
same,TGI,[48],> 25 µM
same,GI50,[49],0.273 µM
same,TGI,[49],1.4 µM
